The experiment has as its target T1, human V1a receptor (Homo sapiens, UniProt P37288).
T1 construct: expressed in transfected cells; host or cells: HEK293 cells, transiently transfected; cell membranes
Put plainly: human V1a receptor binding studies (3H-Vasopressin SPA, HEK293 cell membranes). To be noted: competition with 3H-Vasopressin on membranes of HEK293 cells transiently transfected with human V1a receptor; Ki by Cheng-Prussoff equation; read-out: pKi (hV1a) (converted). The procedure:
The human V1a receptor was cloned by RT-PCR from total human liver RNA. The coding sequence was subcloned in an expression vector after sequencing to confirm the identity of the amplified sequence. […] Cell membranes were prepared from HEK293 cells transiently transfected with the expression vector and grown in 20 liter fermenters with the following protocol.
50 g of cells are re-suspended in 30 ml freshly prepared ice cold Lysis buffer (50 mM HEPES, 1 mM EDTA, 10 mM MgCl2 adjusted to pH= 7.4 + complete cocktail of protease inhibitor (Roche Diagnostics)). Homogenized with Polytron for Imin and sonicated on ice for 2x 2 minutes at 80% intensity (Vibracell sonicator). The preparation is centrifuged 20 min at 500 g at 4° C., the pellet is discarded and the supernatant centrifuged 1 hour at 43 ′000g at 4° C. (19 ′000rpm). The pellet is re-suspended in 12.5 ml Lysis buffer+12.5 ml Sucrose 20% and homogenized using a Polytron for 1-2 min. The protein concentration is determined by the Bradford method and aliquots are stored at -80° C. until use. For binding studies 60 mg Yttrium silicate SPA beads (Amersham) are mixed with an aliquot of membrane in binding buffer (50 mM Tris, 120 mM NaCl, 5 mM KCl, 2 mM CaCl2, 10 mM MgCl2) for 15 minutes with mixing. 50 µl of bead/membrane mixture is then added to each well of a 96 well plate, followed by 50 µl of 4 nM 3H-Vasopressin (American Radiolabeled Chemicals). For total binding measurement 100 µl of binding buffer are added to the respective wells, for non-specific binding 100 µl of 8.4 mM cold vasopressin and for compound testing 100 µl of a serial dilution of each compound in 2% DMSO. The plate is incubated 1 h at room temperature, centrifuged 1 min at 1000 g and counted on a Packard Top-Count. Non-specific binding counts are subtracted from each well and data is normalized to the maximum specific binding set at 100%. To calculate an IC50 the curve is fitted using a non-linear regression model (XLfit) and the Ki is calculated using the Cheng-Prussoff equation.
T1 sequence (P37288 whole entry): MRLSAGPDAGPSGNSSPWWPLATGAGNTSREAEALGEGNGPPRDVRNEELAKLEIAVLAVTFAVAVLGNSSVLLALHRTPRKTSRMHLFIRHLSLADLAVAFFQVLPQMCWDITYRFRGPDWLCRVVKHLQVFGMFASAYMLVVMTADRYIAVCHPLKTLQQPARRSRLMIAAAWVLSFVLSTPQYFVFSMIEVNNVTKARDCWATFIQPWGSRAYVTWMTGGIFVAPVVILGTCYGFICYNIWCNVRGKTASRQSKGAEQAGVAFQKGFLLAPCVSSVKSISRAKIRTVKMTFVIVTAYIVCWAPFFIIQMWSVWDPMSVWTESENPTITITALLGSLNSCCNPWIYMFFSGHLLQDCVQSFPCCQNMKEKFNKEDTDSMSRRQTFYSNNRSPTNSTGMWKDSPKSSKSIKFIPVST
`COCc1nnc([C@H]2CC[C@H](Oc3ccc(C)nc3)CC2)n1-c1ccc(Cl)cc1` [Example 67, trans[4-[4-(4-Chlorophenyl)(methoxymethyl)-1,2,4-triazol-3-yl]cyclohexyl]oxy-2-methylpyridine]: the Ki is 0.661 nM.

In the case of `COCc1nnc([C@H]2CC[C@H](Oc3cnccn3)CC2)n1-c1ccc(C)cc1` [Example 68, trans[4-[5-(Methoxymethyl)-4-(4-methylphenyl)-1,2,4-triazol-3-yl]cyclohexyl]oxypyrazine], the Ki is 8.13 nM.

Regarding `COCc1nnc([C@H]2CC[C@H](Oc3cnccn3)CC2)n1-c1ccc(Cl)cc1` [Example 69, trans[4-[4-(4-Chlorophenyl)-5-(methoxymethyl)-1,2,4-triazol-3-yl]cyclohexyl]oxypyrazine], the Ki is 2.45 nM.

In the case of `Cc1cnc(O[C@H]2CC[C@H](c3nnc(C)n3-c3ccc(Cl)cc3)CC2)cn1` [Example 70, trans[4-[4-(4-Chlorophenyl)-5-methyl-1,2,4-triazol-3-yl]cyclohexyl]oxy-5-methylpyrazine], the Ki is 5.01 nM.

Regarding `Cc1ccc(-n2c(C)nnc2[C@H]2CC[C@H](Oc3cnc(C)cn3)CC2)cc1` [Example 71, transMethyl-5-[4-[5-methyl-4-(4-methylphenyl)-1,2,4-triazol-3-yl]cyclohexyl]oxypyrazine], the Ki was 17.8 nM.

For the compound `COCc1nnc([C@H]2CC[C@H](Oc3cnc(C)cn3)CC2)n1-c1ccc(Cl)cc1` [Example 72, trans[4-[4-(4-Chlorophenyl)-5-(methoxymethyl)-1,2,4-triazol-3-yl]cyclohexyl]oxy-5-methylpyrazine], the Ki was 2.95 nM.

(Values after patent publication US20230202990A1, “CYCLOHEXYL SUBSTITUTED TRIAZOLES” (Hoffmann-La Roche Inc., priority 2020, published 2023).)
